Patent US12036246B2, “Compositions and methods for enhancing cancer chemotherapy” (priority 2017, dated 2024)

Experiments:
[1] = system: breast cancer cells; assay: Metastatic tumor load in mammary glands, animals implanted with breast cancer cells; assay type: in vivo; settings: FIG. 65
[2] = system: proliferative index marker; assay: Proliferative index marker in mammary gland tumors by immunocytochemistry; assay type: in vivo, murine; settings: FIG. 11
Source text: The effects of a nutritional supplement that includes fish oil and selenium in combination with chemotherapeutic drugs were also identified in in vivo studies, where the Ki-61 proliferative index marker was identified in mammary gland tumors of murine models by immunocytochemistry.

[3] = system: Cytochrome C; assay: Western blot of Cytochrome C in tumors; assay type: in vivo; settings: FIG. 38
Source text: Results of similar studies directed to Bc1-2, p-Bc1-2, and Caspase 3 are shown in FIG. 36; results for similar studies directed to Caspase 8 are shown in FIG. 37. […] These effects are enhanced, in several instances synergistically, when a nutritional supplement containing fish oil and selenium is used in combination with a chemotherapeutic drug.

[4] = system: p-AXL; assay: Western blot of p-AXL in tumors, animal models of triple negative human breast cancer; assay type: in vivo; settings: FIG. 112
[5] = system: A549 lung cancer cells; assay: Cell cycle phase distribution of A549 tumor cells; assay type: cell-based; settings: selenium 300 ng/mL, fish oil 75 μM (DHA content), Alimta 1 μM, Tarceva 5 μM
[6] = system: A549 lung cancer sphere cells; assay: Cell cycle phase distribution of A549 sphere cells; assay type: cell-based; settings: Alimta 1 μM, Tarceva 5 μM, fish oil 75 μM, selenium 300 ng/mL
[7] = system: MDA-MB-231 breast cancer sphere cells; assay: Proliferation of MDA-MB-231 sphere cells; assay type: cell-based; settings: FIG. 45-46
[8] = system: MDA-MB-231 breast cancer sphere cells; assay: Cell cycle phase distribution, Cisplatin / selenium / fish oil (Table 4); assay type: cell-based; settings: selenium 500 ng/mL, fish oil 75 μM (DHA content), Cisplatin 5 μg/mL
[9] = system: triple-negative breast cancer cell line (MDA-MB-231); assay: Proliferation of MDA-MB-231 breast cancer cells; assay type: cell-based; settings: 72 hours, FIG. 8-9
[10] = system: HCC827Gr cells; assay: Viable resistant HCC827Gr cells in culture; assay type: cell-based, human; settings: FIG. 54
[11] = system: PD-1; assay: PD-1 in T cells of animal models; assay type: in vivo; settings: FIG. 70-72
[12] = system: HCC827Gr cells; assay: Colony formation by resistant HCC827Gr cells; assay type: cell-based, human; settings: 0.5 μM Iressa, FIG. 59-60
[13] = system: lung cancer cells; assay: Tumor weight in mice implanted with lung cancer cells, Iressa; assay type: in vivo
[14] = system: A549 sphere cells; assay: Proliferation of A549 sphere cells; assay type: cell-based; settings: FIG. 43-44
[15] = system: AXL; assay: Western blot of AXL in drug resistant HCC827GR cells; assay type: cell-based, human; settings: Iressa 1 μM, FIG. 105, 108
[16] = system: drug resistant HCC827Gr lung cancer cells; assay: Proliferation of drug resistant HCC827Gr cells; assay type: cell-based, human
[17] = system: Iressa-resistant HCC827GR cells; assay: Cell cycle phase distribution of Iressa-resistant cells, co-treatment; assay type: cell-based, human; settings: Iressa 1 μM
[18] = system: IL-6; assay: IL-6 expression in tumors; settings: FIG. 77
[19] = system: PTHrP; assay: PTHrP expression in tumors; assay type: in vivo; settings: FIG. 77, FIG. 89
[20] = system: lung cancer cells; assay: Metastasis from implantation site of lung cancer cells; assay type: in vivo, mice; settings: FIG. 63
[21] = system: implanted tumor; settings: 28 days after tumor implantation, FIG. 13
Source text: 8A provides an example of a typical testing protocol for such a nutritional supplement (“Nutrawell”) and the chemotherapeutic drug Tarceva. As shown, 28 days after tumor implantation mice were sacrificed and the tumor characterized.

[22] = Loss of adipose tissue and muscle mass in tumor bearing mice; assay type: in vivo; settings: FIG. 75
Source text: Individuals with cancer frequently present with weight loss, due to loss of fatty tissue and muscle wasting (cachexis). This weight loss can result in serious health issues in addition to those resulting directly from tumor growth and progression. […] Mice having tumors, with or without treatment with chemotherapeutic agents also experience cachexis.

[23] = system: HSP90; assay: Western blot of HSP90 in tumors, animal models of triple negative human breast cancer; assay type: in vivo; settings: FIG. 111
Procedure: Studies of the effect of a nutritional supplement containing fish oil and selenium, both alone and in combination with chemotherapeutic agents, were also studied using in vivo animal models of triple negative human breast cancer. Animals were treated with a nutritional supplement containing fish oil and selenium (for example, a formulation as described in Table 1), Taxol (“tax”), Adriamycin (“adyri”), Avastin, or a combination of the nutritional supplement and individual chemotherapeutic agents.

[24] = system: UCP-1; assay: UCP-1 expression in animal models of human cancer; assay type: in vivo; settings: FIG. 89
Source text: (§1) As shown in FIG. 89 (lower left panel), expression of UCP-1 and ATGL is increases in tumor tissue (T) relative to non-tumor tissue (NT).

[25] = system: vascularization of tumors; assay: Tumor-associated blood vessels in murine models of breast cancer; assay type: in vivo, mice; settings: FIG. 24-31
Procedure: In an exemplary study mice were treated as shown in the scheme depicted in FIG. 23.

[26] = system: ATGL; assay: ATGL expression in animal models of human cancer; assay type: in vivo; settings: FIG. 89
Source text: as §1

Molecule: COc1cccc2c1C(=O)c1c(O)c3c(c(O)c1C2=O)C[C@@](O)(C(=O)CO)C[C@@H]3O[C@H]1C[C@H](N)[C@H](O)[C@H](C)O1 [Adriamycin, doxorubicin]
- metastatic tumor load in the mammary glands [1]: more effective than Taxol in reducing metastatic tumor load
- number of Ki-61 positive cells (proliferative index) [2]: reduces the number of positive cells
- Cytochrome C [3]: little to no increase
- p-AXL content of the tumor [4]: little to no apparent reduction in p-AXL expression

Molecule: Nc1nc2[nH]cc(CCc3ccc(C(=O)N[C@@H](CCC(=O)O)C(=O)O)cc3)c2c(=O)[nH]1 [Alimta]
- G0/G1 (cell cycle phase distribution) [5]: 58.4%
- G2/M (cell cycle phase distribution) [5]: 5.3%
- S (cell cycle phase distribution) [5]: 36.3%
- SubG1 (cell cycle phase distribution) [5]: 45%
- G0/G1 (cell cycle phase distribution) [6]: 62.4%
- G2/M (cell cycle phase distribution) [6]: 7.2%
- S (cell cycle phase distribution) [6]: 30.4%
- SubG1 (cell cycle phase distribution) [6]: 20.9%

Molecule: N.N.[Cl][Pt][Cl] [Cisplatin]
- proliferation of MDA-MB-231 breast cancer sphere cells [7]: relatively resistant
- G0/G1 (cell cycle phase distribution) [8]: 48.5%
- G2/M (cell cycle phase distribution) [8]: 6.1%
- S (cell cycle phase distribution) [8]: 45.4%
- SubG1 (cell cycle phase distribution) [8]: 11.7%

Molecule: CC(=O)O[C@@]12CO[C@@H]1C[C@H](O)[C@@]1(C)C(=O)[C@H](O)C3=C(C)[C@@H](OC(=O)[C@H](O)[C@@H](NC(=O)OC(C)(C)C)c4ccccc4)C[C@@](O)([C@@H](OC(=O)c4ccccc4)[C@H]21)C3(C)C [Docetaxel]
- MDA-MB-231 cell proliferation [9]: provided a reduction in proliferation
- proliferation of MDA-MB-231 breast cancer sphere cells [7]: moderate sensitivity to Docetaxel

Molecule: COc1cc2ncnc(Nc3ccc(F)c(Cl)c3)c2cc1OCCCN1CCOCC1 [Iressa]
- number of viable resistant HCC827Gr cells [10]: does not significantly decrease the number of viable resistant HCC827Gr cells
- PD-1 expression in T cells [11]: marginally reduced
- colony formation by HCC827Gr cells [12]: Significant colony formation
- tumor weight ([13]; FIG. 16): only a marginal reduction in tumor weight
- tumor weight distribution ([13]; FIG. 16 top right panel): most of the mice having >6 gram tumors
- proliferation of A549 sphere cells [14]: relatively resistant to treatment with Iressa
- AXL expression [15]: had no effect
- reduction in cell proliferation ([16]; HCC827Gr cells, FIG. 57-58): ≤ 20%
- activity at 1 µM ([16]; Homo sapiens, read-out: proliferation, % of control values): ~80%
- G0/G1 (cell cycle phase distribution) [17]: 76.1%
- G2/M (cell cycle phase distribution) [17]: 18.9%
- S (cell cycle phase distribution) [17]: 4.9%
- SubG1 (cell cycle phase distribution) [17]: 1.51%

Molecule: C#Cc1cccc(Nc2ncnc3cc(OCCOC)c(OCCOC)cc23)c1 [Tarceva]
- PD-1 expression in T cells [11]: marginally reduced
- IL-6 expression in tumors [18]: can actually increase expression of such gene products
- PTHrP expression [19]: can actually increase expression of such gene products
- G0/G1 (cell cycle phase distribution) [5]: 70.9%
- G2/M (cell cycle phase distribution) [5]: 14.8%
- S (cell cycle phase distribution) [5]: 14.2%
- SubG1 (cell cycle phase distribution) [5]: 5.9%
- metastasis of tumor cells from the implantation site [20]: reduced to some extent
- proliferation of A549 sphere cells [14]: similarly resistant to Tarceva
- tumor weight distribution, large (>5 g) tumors [21]: still showed a significant number of such large tumors
- G0/G1 (cell cycle phase distribution) [6]: 58.3%
- G2/M (cell cycle phase distribution) [6]: 8.9%
- S (cell cycle phase distribution) [6]: 32.7%
- SubG1 (cell cycle phase distribution) [6]: 42.8%
- loss of white adipose tissue (WAT), brown adipose tissue (BAT), and muscle mass (gastroc) [22]: only slightly relieved

Molecule: CC(=O)O[C@H]1C(=O)[C@@]2(C)[C@H]([C@H](OC(=O)c3ccccc3)[C@]3(O)C[C@H](OC(=O)[C@H](O)[C@@H](NC(=O)c4ccccc4)c4ccccc4)C(C)=C1C3(C)C)[C@]1(OC(C)=O)CO[C@@H]1C[C@@H]2O [Taxol, paclitaxel]
- metastatic tumor load in the mammary glands [1]: modest reduction in tumor loading of mammary glands
- PTHrP expression [19]: actually increased expression when used alone
- number of Ki-61 positive cells (proliferative index) [2]: reduces the number of positive cells
- HSP90 expression in tumor samples [23]: minimal impact on HSP90 expression
- expression of UCP-1 [24]: decreased somewhat
- blood vessels associated with the tumors [25]: reduce the number of blood vessels associated with the tumor and also reduce their diameter
- Cytochrome C [3]: little to no increase
- expression of ATGL [26]: decreased somewhat
- p-AXL content of the tumor [4]: reduces p-AXL expression

Molecule: Avastin: chemotherapeutic drug commonly used to treat breast cancer
- HSP90 expression in tumor samples [23]: reduced to some extent
- p-AXL content of the tumor [4]: little to no apparent reduction in p-AXL expression
